Assay results taken from patent publication US9663496B2, “AMPK-activating heterocyclic compounds and methods for using the same” (Rigel Pharmaceuticals, Inc., priority 2010, dated 2017).

Biological target: AMPK
Experiment: AMPK activation, enzyme-linked immunosorbent assay
Format: biochemical
Details: EC50 for AMPK activation, ELISA
Summary of the method: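 Kit-based immunoassay; compounds screened as activators; standard reagents and protocol.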

`N#Cc1ccc(CN2CCC(NC(=O)c3ccc(C(=O)N4CCC(Oc5ccc(N)cc5)CC4)nc3)CC2)cc1` [Compound 364, 6-(4-(4-aminophenoxy)piperidine-1-carbonyl)-N-(1-(4-cyanobenzyl)piperidin-4-yl)nicotinamide] was tested, and the EC50 was < 500 nM.
In the case of `CC(=O)c1ccc(OC2CCN(C(=O)c3ccc(C(=O)NC4CCN(Cc5ccc(F)cc5)CC4)cn3)CC2)cc1` [Compound 391, 6-(4-(4-acetylphenoxy)piperidine-1-carbonyl)-N-(1-(4-fluorobenzyl)piperidin-4-yl)nicotinamide], the EC50 is reported as < 500 nM.
`O=C(c1ccc(C(=O)N2CCN(CCc3ccccc3)CC2)nc1)N1CCN(c2ccccc2)CC1` [Compound 90, (4-phenethylpiperazin-1-yl)(5-(4-phenylpiperazine-1-carbonyl)pyridin-2-yl)methanone] was tested, and the EC50 was > 10000 nM.
With `N#Cc1ccc(CN2CCC(NC(=O)c3ccc(C(=O)N4CCC(Oc5ccc(C(F)(F)F)cc5)CC4)cn3)CC2)cc1` [Compound 157, N-(1-(4-cyanobenzyl)piperidin-4-yl)-5-(4-(4-(trifluoromethyl)phenoxy)piperidine-1-carbonyl)picolinamide] the EC50 was < 500 nM.
For `N#Cc1ccc(CN2CCC(NC(=O)c3ccc(C(=O)N4CCC(Oc5ccc(F)cc5F)CC4)cn3)CC2)cc1` [Compound 282, N-(1-(4-cyanobenzyl)piperidin-4-yl)-5-(4-(2,4-difluorophenoxy)piperidine-1-carbonyl)picolinamide], the EC50 was < 500 nM.
Work on `CC(C)(C)C(=O)N1CCN(C(=O)c2ccc(C(=O)NC3CCN(Cc4ccc(C#N)cc4)CC3)nc2)CC1` [Compound 81, N-(1-(4-cyanobenzyl)piperidin-4-yl)-5-(4-pivaloylpiperazine-1-carbonyl)picolinamide] yielded an EC50 of 500 to 1000 nM.
Compound `COc1ccc(C(=O)C2CCN(C(=O)c3ccc(C(=O)NC4CCN(Cc5ccc(N)cc5)CC4)cn3)CC2)cc1` [Compound 400, N-(1-(4-aminobenzyl)piperidin-4-yl)-6-(4-(4-methoxybenzoyl)piperidine-1-carbonyl)nicotinamide] has an EC50 of 1000 to 5000 nM.
`COc1ccc(C(=O)C2CCN(C(=O)c3ccc(C(=O)N[C@@H]4CCN(Cc5ccc(C#N)c(F)c5)C[C@H]4F)cn3)CC2)cc1` (relative stereo) [Compound 354, N-((trans)-1-(4-cyano-3-fluorobenzyl)-3-fluoropiperidin-4-yl)-6-(4-(4-methoxybenzoyl)piperidine-1-carbonyl)nicotinamide] was tested, and the EC50 was < 500 nM.
For `CN1CCN(c2ccc(C(=O)C3CCN(C(=O)c4cnc(C(=O)NC5CCN(Cc6ccc(C#N)cc6)CC5)cn4)CC3)cc2)CC1` [Compound 220, N-(1-(4-cyanobenzyl)piperidin-4-yl)-5-(4-(4-(4-methylpiperazin-1-yl)benzoyl)piperidine-1-carbonyl)pyrazine-2-carboxamide], the EC50 was < 500 nM.
In the case of `CN(C)C(=O)c1ccc(OC2CCN(C(=O)c3ccc(C(=O)NC4CCN(Cc5ccc(C#N)cc5)CC4)nc3)CC2)cc1` [Compound 357, N-(1-(4-cyanobenzyl)piperidin-4-yl)-5-(4-(4-(dimethylcarbamoyl)phenoxy)piperidine-1-carbonyl)picolinamide], the EC50 is reported as < 500 nM.
`N#Cc1ccc(CN2CCC(NC(=O)c3ccc(C(=O)N4CCC(S(=O)(=O)c5ccc(F)cc5)CC4)cn3)CC2)cc1` [Compound 262, N-(1-(4-cyanobenzyl)piperidin-4-yl)-5-(4-(4-fluorophenylsulfonyl)piperidine-1-carbonyl)picolinamide] was tested, and the EC50 was < 500 nM.
For `COc1ccc(OC2CCN(C(=O)c3ccc(C(=O)NC4CCN(Cc5ccc(C#N)cc5)CC4)cn3)CC2)c(NC(C)=O)c1` [Compound 383, 6-(4-(2-acetamido-4-methoxyphenoxy)piperidine-1-carbonyl)-N-(1-(4-cyanobenzyl)piperidin-4-yl)nicotinamide], the EC50 was > 10000 nM.
For `N#Cc1ccc(CN2CCC(NC(=O)c3ccc(C(=O)N4CCC(C(=O)c5ccc(F)cc5F)CC4)cn3)CC2)cc1` [Compound 271, N-(1-(4-cyanobenzyl)piperidin-4-yl)-5-(4-(2,4-difluorobenzoyl)piperidine-1-carbonyl)picolinamide], the EC50 was < 500 nM.
For `O=C(Nc1ccc(-c2ccccc2)cc1)c1ccc(C(=O)NC2CCN(Cc3ccccc3)CC2)nc1` [Compound 105, N2-(1-benzylpiperidin-4-yl)-N5-(biphenyl-4-yl)pyridine-2,5-dicarboxamide], the EC50 was > 10000 nM.
`O=C(NC1CCN(Cc2ccc(F)cc2)CC1)c1cccc(C(=O)NC2CCN(Cc3ccc(F)cc3)CC2)n1` [Compound 87, N2,N6-bis(1-(4-fluorobenzyl)piperidin-4-yl)pyridine-2,6-dicarboxamide] gave an EC50 of 1000 to 5000 nM.
In the case of `N#Cc1ccc(CN2CCC(NC(=O)c3ccc(C(=O)N4CCN(C(=O)c5ccc(F)cc5)CC4)cn3)CC2)cc1` [Compound 76, N-(1-(4-cyanobenzyl)piperidin-4-yl)-5-(4-(4-fluorobenzoyl)piperazine-1-carbonyl)picolinamide], the EC50 is reported as < 500 nM.
For `N#Cc1ccc(Cn2ccc(NC(=O)c3ccc(C(=O)N4CCN(Cc5ccc(F)cc5)CC4)cn3)n2)cc1` [Compound 9, N-(1-(4-cyanobenzyl)-1H-pyrazol-3-yl)-5-(4-(4-fluorobenzyl)piperazine-1-carbonyl)picolinamide], the EC50 was < 500 nM.
For `O=C(Nc1ccc(Oc2ccc(F)cc2)nc1)c1ccc(C(=O)N2CCC(C(=O)c3ccc(F)cc3F)CC2)cn1` [Compound 342, 5-(4-(2,4-difluorobenzoyl)piperidine-1-carbonyl)-N-(6-(4-fluorophenoxy)pyridin-3-yl)picolinamide], the EC50 was < 500 nM.
`N#Cc1ccc(CN2CCC(NC(=O)c3cccc(C(=O)NC4CCN(Cc5ccc(C#N)cc5)CC4)n3)CC2)cc1` [Compound 86, N2,N6-bis(1-(4-cyanobenzyl)piperidin-4-yl)pyridine-2,6-dicarboxamide] was tested, and the EC50 was 1000 to 5000 nM.
`N#Cc1ccc(CN2CCC(NC(=O)c3ccc(C(=O)N4CCN(c5ccc(S(=O)(=O)C6CC6)cc5)CC4)cn3)CC2)cc1` [Compound 256, N-(1-(4-cyanobenzyl)piperidin-4-yl)-5-(4-(4-(cyclopropylsulfonyl)phenyl)piperazine-1-carbonyl)picolinamide] was tested, and the EC50 was < 500 nM.
With `CS(=O)(=O)c1ccc(OC2CCN(C(=O)c3ccc(C(=O)N[C@@H]4CCN(Cc5ccc(OC(F)(F)F)cc5)C[C@H]4F)nc3)CC2)cc1` (relative stereo) [Compound 255, N-((trans)-3-fluoro-1-(4-(trifluoromethoxy)benzyl)piperidin-4-yl)-5-(4-(4-(methylsulfonyl)phenoxy)piperidine-1-carbonyl)picolinamide] the EC50 was < 500 nM.
Work on `N#Cc1ccc(O[C@H]2CC[C@H](NC(=O)c3ccc(C(=O)N4CCC(Oc5ccc(F)cc5)CC4)cn3)CC2)cc1` [Compound 169, N-((trans)-4-(4-cyanophenoxy)cyclohexyl)-5-(4-(4-fluorophenoxy)piperidine-1-carbonyl)picolinamide] yielded an EC50 of 500 to 1000 nM.
In the case of `N#Cc1ccc(CN2CCC(NC(=O)c3ccc(C(=O)N4CCC(C(=O)c5ccc(F)cc5)CC4)cn3)CC2)cc1` [Compound 136, N-(1-(4-cyanobenzyl)piperidin-4-yl)-5-(4-(4-fluorobenzoyl)piperidine-1-carbonyl)picolinamide], the EC50 is reported as < 500 nM.
Compound `N#Cc1ccc(CN2CCC(NC(=O)c3ccc(-c4cn(Cc5ccccc5)nn4)cn3)CC2)cc1` [Compound 121, 5-(1-benzyl-1H-1,2,3-triazol-4-yl)-N-(1-(4-cyanobenzyl)piperidin-4-yl)picolinamide] has an EC50 of 1000 to 5000 nM.
For `N#Cc1ccc(CN2CCC(NC(=O)c3ccc(N4CCC(Oc5ccc(C(F)(F)F)cc5)CC4)nn3)CC2)cc1` [Compound 361, N-(1-(4-cyanobenzyl)piperidin-4-yl)-6-(4-(4-(trifluoromethyl)phenoxy)piperidin-1-yl)pyridazine-3-carboxamide], the EC50 was < 500 nM.
With `O=C(NC1CCN(Cc2ccccc2)CC1)c1ccc(C(=O)N2CCN(Cc3ccccc3)CC2)nc1` [Compound 74, 6-(4-benzylpiperazine-1-carbonyl)-N-(1-benzylpiperidin-4-yl)nicotinamide] the EC50 was < 500 nM.
In the case of `N#Cc1ccc(CN2CCC(NC(=O)c3ccc(N4CCC(C(=O)c5ccc(Cl)cc5)CC4)cn3)CC2)cc1` [Compound 266, 5-(4-(4-chlorobenzoyl)piperidin-1-yl)-N-(1-(4-cyanobenzyl)piperidin-4-yl)picolinamide], the EC50 is reported as < 500 nM.
For `O=C(Nc1ccc(Oc2ccc(F)cc2)nc1)c1ccc(C(=O)N2CCC(Oc3ccc(S(=O)(=O)C4CC4)cc3)CC2)nc1` [Compound 247, 6-(4-(4-(cyclopropylsulfonyl)phenoxy)piperidine-1-carbonyl)-N-(6-(4-fluorophenoxy)pyridin-3-yl)nicotinamide], the EC50 was < 500 nM.
`O=C(Nc1cccc(-c2ccccc2)c1)c1ccc(C(=O)NC2CCN(Cc3ccccc3)CC2)nc1` [Compound 106, N2-(1-benzylpiperidin-4-yl)-N5-(biphenyl-3-yl)pyridine-2,5-dicarboxamide] gave an EC50 of 5000 to 10000 nM.
`COc1ccc(OC2CCN(C(=O)c3ccc(C(=O)N[C@H]4CC[C@@H](Oc5ccc(C#N)cc5)CC4)nc3)CC2)cc1` [Compound 174, N-((cis)-4-(4-cyanophenoxy)cyclohexyl)-5-(4-(4-methoxyphenoxy)piperidine-1-carbonyl)picolinamide] was tested, and the EC50 was < 500 nM.
For `N#Cc1ccc(CN2CCC(NC(=O)c3ccc(C(=O)N4CCN(S(=O)(=O)c5ccccc5)CC4)cn3)CC2)cc1` [Compound 82, N-(1-(4-cyanobenzyl)piperidin-4-yl)-5-(4-(phenylsulfonyl)piperazine-1-carbonyl)picolinamide], the EC50 was 500 to 1000 nM.
For `COc1cccc(CN2CCC(NC(=O)c3ccc(C(=O)N4CCC(Oc5ccc(S(C)(=O)=O)cc5)CC4)cn3)CC2)c1` [Compound 241, N-(1-(3-methoxybenzyl)piperidin-4-yl)-5-(4-(4-(methylsulfonyl)phenoxy)piperidine-1-carbonyl)picolinamide], the EC50 was < 500 nM.
In the case of `CN(C)C(=O)c1ccc(OC2CCN(C(=O)c3ccc(C(=O)Nc4ccc(Oc5ccc(F)cc5)nc4)nc3)CC2)cc1` [Compound 360, 5-(4-(4-(dimethylcarbamoyl)phenoxy)piperidine-1-carbonyl)-N-(6-(4-fluorophenoxy)pyridin-3-yl)picolinamide], the EC50 is reported as < 500 nM.
`N#Cc1ccc(Oc2ccc(NC(=O)c3ccc(C(=O)N4CCC(S(=O)(=O)c5ccc(F)cc5)CC4)nc3)cn2)cc1` [Compound 472, N-(6-(4-cyanophenoxy)pyridin-3-yl)-6-(4-(4-fluorophenylsulfonyl)piperidine-1-carbonyl)nicotinamide] was tested, and the EC50 was 1000 to 5000 nM.
